Measurements as given in patent publication US20170000715A1, “PEGYLATED 7-DEHYDROCHOLESTEROL DERIVATIVES” (HUMEDIX CO., LTD., priority 2014, published 2017).

Assay: Solubility test (saturated aqueous solution in distilled water, gravimetric)
Format: physicochemical
Conditions: room temperature, calculated according to Equation 1
Procedure: Each of compounds of Examples 1 and 5 and 7-dehydrocholesterol as a comparative material was dissolved in an amount of 100 mg in 100 ml of distilled water, followed by stirring at room temperature for 1 hour. The procedure was repeated until each compound was saturated and those being not dissolved were filtered, to prepare each saturated aqueous solution.
Then, the saturated aqueous solution was put into a weighed empty container (A), followed by weighing (B). Then, the saturated aqueous solution in the container was concentrated in reduced pressure and dried under vacuum, followed by weighing (C). The solubility of each solution was calculated according to the following Equation 1, and the results thereof are shown in Table 2.

**Q.** For CC(C)CCC[C@@H](C)[C@H]1CC[C@H]2C3=CC=C4C[C@@H](O)CC[C@]4(C)[C@H]3CC[C@]12C [7-Dehydrocholesterol, 7-dehydrocholesterol], which Solubility is on record?
**A.** Its Solubility is “Insoluble”.
